According to patent US20250074901A1, “NOVEL HETEROARYL COMPOUNDS” (ICAGEN, LLC, priority 2021, published 2025):

Molecular target: T1, Kv7.2 (Homo sapiens, UniProt O43526)
T1 construct: expressed in transfected cells
Assay: Activation of Kv7.2 (in vitro assay, concentration response curve)
Format: cell-based
Details: for Emax: Kv7.2 activation max %; for EC50: activation of Kv7.2
Method in brief: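 Agonist activity was measured in vitro across a range of compound concentrations and plotted as a sigmoidal concentration–response curve. EC50 is the concentration giving 50% of that compound's own maximal response (Emax).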

SMILES	Emax [%]	EC50 [nM]
O=C(Nc1cccc(Cl)c1F)NC(CO)c1ccnc(OCC(F)(F)F)c1 (centres unmarked) [Example 150, 1-(3-chloro-2-fluorophenyl)-3-[2-hydroxy-1-[2-(2,2,2-trifluoroethoxy)pyridin-4-yl]ethyl]urea]	73	80
O=C(NCc1ccnc(OC(F)F)c1)N[C@@H]1[C@H]2CCC(F)(F)[C@H]21 [Example 170, 1-[(1R,5S,6R)-2,2-difluoro-6-bicyclo[3.1.0]hexanyl]-3-[[2-(difluoromethoxy)pyridin-4-yl]methyl]urea]	59	80
O=C(NCc1ccnc(OCC(F)(F)F)c1)N[C@H](C1CC1)C(F)(F)F [Example 257, 1-[(1R)-1-cyclopropyl-2,2,2-trifluoroethyl]-3-[[2-(2,2,2-trifluoroethoxy)pyridin-4-yl]methyl]urea]	61	240
O=C(Nc1cccc(Cl)c1)NC(CO)c1ccnc(OCC(F)(F)F)c1 (centres unmarked) [Example 92, 1-(3-chlorophenyl)-3-[2-hydroxy-1-[2-(2,2,2-trifluoroethoxy)pyridin-4-yl]ethyl]urea]	64	180
O=C(NCc1ccnc(OC(F)F)c1)NC1(C2CC(F)(F)C2)CC1 [Example 171, 1-[1-(3,3-difluorocyclobutyl)cyclopropyl]-3-[[2-(difluoromethoxy)pyridin-4-yl]methyl]urea]	48	360
COC(CNC(=O)NCc1ccnc(OC(F)F)c1)C(F)(F)F (centres unmarked) [Example 119, 1-[[2-(difluoromethoxy)pyridin-4-yl]methyl]-3-(3,3,3-trifluoro-2-methoxypropyl)urea]	41	1600
O=C(NCc1ccnc(OCF)c1)Nc1cccc(Cl)c1 [Example 164, 1-(3-chlorophenyl)-3-[[2-(fluoromethoxy)pyridin-4-yl]methyl]urea]	78	1720
O=C(NCc1ccnc(OC(F)F)c1)N[C@@H]1C[C@H]2C[C@@H]1C(F)(F)C2 (racemic) [Example 236, 1-[[2-(difluoromethoxy)pyridin-4-yl]methyl]-3-[rac-(1R,2S,4S)-6,6-difluoro-2-bicyclo[2.2.1]heptanyl]urea]	87	460
O=C(NCc1ccnc(OC(F)F)c1)N[C@H]1C[C@H](C(F)(F)F)C1 [Example 42, 1-[[2-(difluoromethoxy)pyridin-4-yl]methyl]-3-[(1r,3r)-3-(trifluoromethyl)cyclobutyl]urea]	58	70
[2H]C([2H])(NC(=O)NC12CCC(F)(CC1)CC2)c1ccnc(OC(F)F)c1 [Example 251, 1-[dideuterio-[2-(difluoromethoxy)pyridin-4-yl]methyl]-3-(4-fluoro-1-bicyclo[2.2.2]octanyl)urea]	60	130
Cc1cc(NC(=O)NCc2ccnc(OC(F)F)c2)ccc1F [Example 261, 1-[[2-(difluoromethoxy)pyridin-4-yl]methyl]-3-(4-fluoro-3-methylphenyl)urea]	40	70
O=C(NCc1ccnc(OC(F)F)c1)N[C@H]1C[C@@H]2[C@H](C1)C2(F)F [Example 189, 1-[[2-(difluoromethoxy)pyridin-4-yl]methyl]-3-[(1R,3r,5S)-6,6-difluoro-3-bicyclo[3.1.0]hexanyl]urea]	74	130
CC(F)(F)COc1cc(CNC(=O)N[C@H]2C[C@H](C(F)(F)F)C2)ccn1 [Example 121, 1-[[2-(2,2-difluoropropoxy)pyridin-4-yl]methyl]-3-[(1r,3r)-3-(trifluoromethyl)cyclobutyl]urea]	62	120
O=C(NCc1ccnc(OC(F)F)c1)N[C@H]1[C@@H](O)[C@H]2CCC[C@H]21 (racemic) [Example 111, 1-[[2-(difluoromethoxy)pyridin-4-yl]methyl]-3-[rac-(1R,5S,6S,7R)-7-hydroxy-6-bicyclo[3.2.0]heptanyl]urea]	63	2780
O=C(NCc1ccnc(SC(F)F)c1)N[C@H]1C[C@H](C(F)(F)F)C1 [Example 260, 1-[[2-(difluoro-methylsulfanyl)pyridin-4-yl]methyl]-3-[(1r,3r)-3-(trifluoromethyl)cyclobutyl]urea]	51	370
O=C(NCc1ccnc(OCC(F)CF)c1)NC12CC(F)(C1)C2 (centres unmarked) [Example 216, 1-[[2-(2,3-difluoropropoxy)pyridin-4-yl]methyl]-3-(3-fluoro-1-bicyclo[1.1.1]pentanyl)urea]	50	1470
O=C(NCc1ccnc(OC(F)F)c1)NCC1(C(F)(F)F)CC1 [Example 229, 1-[[2-(difluoromethoxy)pyridin-4-yl]methyl]-3-[[1-(trifluoromethyl)cyclopropyl]methyl]urea]	49	600
O=C(NCc1ccnc(OC(F)F)c1)N[C@@H](CC(F)(F)F)C(F)(F)F [Example 273, 1-[[2-(difluoromethoxy)pyridin-4-yl]methyl]-3-[(2S)-1,1,1,4,4,4-hexafluorobutan-2-yl]urea]	48	890
O=C(NCc1ccnc(OC(F)F)c1)NC1CC2C(C1)C2(F)F (racemic) [Example 74, 1-[[2-(difluoromethoxy)pyridin-4-yl]methyl]-3-[rac-(1R,5S)-6,6-difluoro-3-bicyclo[3.1.0]hexanyl]urea]	58	170
O=C(NCc1ccnc(-n2cccn2)c1)N[C@@H]1C[C@H]2CC[C@@H]1C2 (racemic) [Example 7, 1-[(2-pyrazol-1-ylpyridin-4-yl)methyl]-3-[rac-(1R,2R,4S)-2-bicyclo[2.2.1]heptanyl]urea]	101	590
O=C(NCc1ccnc(OCC(F)(F)F)c1)Nc1cccc(F)c1F [Example 248, 1-(2,3-difluorophenyl)-3-[[2-(2,2,2-trifluoroethoxy)pyridin-4-yl]methyl]urea]	62	140
O=C(NCc1ccnc(-n2cccn2)c1)NC1CCCC1 [Example 2, 1-cyclopentyl-3-[(2-pyrazol-1-ylpyridin-4-yl)methyl]urea]	74	4400
O=C(NCc1ccnc(OC(F)F)c1)N[C@@H]1CC[C@H]2CCC[C@H]21 [Example 76, 1-[(1R,3aR,6aR)-1,2,3,3a,4,5,6,6a-octahydropentalen-1-yl]-3-[[2-(difluoromethoxy)pyridin-4-yl]methyl]urea]	79	20
O=C(NCc1ccnc(OC(F)F)c1)N[C@@H]1CC[C@@H]1F (racemic) [Example 123, 1-[[2-(difluoromethoxy)pyridin-4-yl]methyl]-3-[rac-(1R,2S)-2-fluorocyclobutyl]urea]	40	4160
O=C(NCCC1=CCCCC1)NCc1ccnc(-n2cccn2)c1 [Example 10, 1-[2-(cyclohexen-1-yl)ethyl]-3-[(2-pyrazol-1-ylpyridin-4-yl)methyl]urea]	54	1390
